{"source": "patent US12616202B2", "about": "“Agricultural formulations, uses thereof and processes for preparation thereof” (priority 2018, dated 2026)", "origin": "cited, not measured here"}
{"smiles": "COCC(=O)N(c1c(C)cccc1C)C(C)C(=O)OC", "note": "(stereo not shown) [metalaxyl, Metalaxyl]", "values": [{"measurement": "water solubility", "value": "8,400 parts per million"}]}
